ChEMBL document CHEMBL4480391, “Discovery and synthesis of sulfur-containing 6-substituted 5,8-dimethoxy-1,4-naphthoquinone oxime derivatives as new and potential anti-MDR cancer agents” (Eur J Med Chem, 2019)
Activity calls are given as the source filed them. No cut-off for these calls is given here.

Assays:
HCT-15 [1] = assay: Cytotoxicity against human HCT15 cells after 72 hrs by MTT assay; format: functional, cell-based; settings: HCT-15, 72 h
MGC-803 [2] = assay: Cytotoxicity against human MGC803 cells after 72 hrs by MTT assay; format: functional, cell-based; settings: MGC-803, 72 h
K562 [3] = assay: Cytotoxicity against human K562 cells after 72 hrs by MTT assay; format: functional, cell-based; settings: K562, 72 h
[4] = Cytotoxicity against human HSF cells after 72 hrs by MTT assay; format: cell-based
[5] = Selectivity index, ratio of IC50 for human HSF cells to IC50 for human HCT15 cells; format: toxicity; settings: HSF cells versus HCT15 cells, read-out: Ratio IC50
HCT-15 [6] = assay: Potency index, ratio of shikonin IC50 to test compound IC50 for human HCT15 cells; format: functional
MGC-803 [7] = assay: Potency index, ratio of shikonin IC50 to test compound IC50 for human MGC803 cells; format: functional
K562 [8] = assay: Potency index, ratio of shikonin IC50 to test compound IC50 for human K562 cells; format: functional
[9] = Cytotoxicity against human […] cells after 72 hrs by MTT assay; format: functional, cell-based
Bel7402/5-FU [10] = assay: Cytotoxicity against human Bel7402/5-FU cells after 72 hrs by MTT assay; format: functional, cell-based
MCF7 = assay: Cytotoxicity against human MCF7 cells after 72 hrs by MTT assay; format: functional, cell-based; settings: MCF7, 72 h
NCI/ADR-RES = assay: Cytotoxicity against human MCF7/ADR cells after 72 hrs by MTT assay; format: functional, cell-based
A549 = assay: Cytotoxicity against human A549 cells after 72 hrs by MTT assay; format: functional, cell-based; settings: A549, 72 h
A549/TR = assay: Cytotoxicity against human A549/TAX cells after 72 hrs by MTT assay; format: functional, cell-based
[11] = Selectivity ratio of IC50 for human […] cells to IC50 for human Bel7402/5-FU cells; format: functional
[12] = Selectivity ratio of IC50 for human MCF7 cells to IC50 for human MCF7/ADR cells; format: functional
[13] = Selectivity ratio of IC50 for human A549 cells to IC50 for human A549/TAX cells; format: functional
Bel7402/5-FU [14] = assay: Inhibition of colony formation in human Bel7402/5-FU cells up to 4 uM measured after 10 days by giemsa staining based assay; format: functional, cell-based
Bel7402/5-FU [15] = assay: Cell cycle arrest in human Bel7402/5-FU cells assessed as decrease in accumulation at S phase at 0.25 to 1 uM measured after 24 hrs by propidium iodide staining based flow cytometry; format: functional
Bel7402/5-FU [16] = assay: Cell cycle arrest in human Bel7402/5-FU cells assessed as decrease in accumulation at G2/M phase at 0.25 to 1 uM measured after 24 hrs by propidium iodide staining based flow cytometry; format: functional
Bel7402/5-FU [17] = assay: Cell cycle arrest in human Bel7402/5-FU cells assessed as accumulation at G1 phase at 0.25 uM measured after 24 hrs by propidium iodide staining based flow cytometry (reference value: 26.32%); format: functional
Bel7402/5-FU [18] = assay: Cell cycle arrest in human Bel7402/5-FU cells assessed as accumulation at G1 phase at 0.5 uM measured after 24 hrs by propidium iodide staining based flow cytometry (reference value: 26.32%); format: functional
Bel7402/5-FU [19] = assay: Cell cycle arrest in human Bel7402/5-FU cells assessed as accumulation at G1 phase at 1 uM measured after 24 hrs by propidium iodide staining based flow cytometry (reference value: 26.32%); format: functional
Bel7402/5-FU [20] = assay: Cell cycle arrest in human Bel7402/5-FU cells assessed as increase in accumulation at G1 phase measured after 24 hrs by propidium iodide staining based flow cytometry; format: functional
Bel7402/5-FU [21] = assay: Induction of apoptosis in human Bel7402/5-FU cells assessed as cell shrinkage at 0.5 to 2 uM measured after 24 hrs by Hoechst 33342/propidium iodide staining based fluorescence microscopy; format: functional
Bel7402/5-FU [22] = assay: Induction of apoptosis in human Bel7402/5-FU cells assessed as nuclear fragmentation at 0.5 to 2 uM measured after 24 hrs by Hoechst 33342/propidium iodide staining based fluorescence microscopy; format: functional, cell-based
Bel7402/5-FU [23] = assay: Induction of apoptosis in human Bel7402/5-FU cells measured after 24 hrs by Annexin V-FITC/propidium iodide staining based flow cytometry; format: functional, cell-based
Bel7402/5-FU [24] = assay: Induction of apoptosis in human Bel7402/5-FU cells assessed as viable cells at 0.5 uM measured after 24 hrs by Annexin V-FITC/propidium iodide staining based flow cytometry (reference value: 89%); format: functional; settings: read-out: Activity
Bel7402/5-FU [25] = assay: Induction of apoptosis in human Bel7402/5-FU cells assessed as early apoptotic cells at 0.5 uM measured after 24 hrs by Annexin V-FITC/propidium iodide staining based flow cytometry (reference value: 2.8%); format: functional
Bel7402/5-FU [26] = assay: Induction of apoptosis in human Bel7402/5-FU cells assessed as late apoptotic cells at 0.5 uM measured after 24 hrs by Annexin V-FITC/propidium iodide staining based flow cytometry (reference value: 8.05%); format: functional
Bel7402/5-FU [27] = assay: Induction of apoptosis in human Bel7402/5-FU cells assessed as necrotic cells at 0.5 uM measured after 24 hrs by Annexin V-FITC/propidium iodide staining based flow cytometry (reference value: 0.137%); format: functional
Bel7402/5-FU [28] = assay: Induction of apoptosis in human Bel7402/5-FU cells assessed as viable cells at 1 uM measured after 24 hrs by Annexin V-FITC/propidium iodide staining based flow cytometry (reference value: 89%); format: functional; settings: read-out: Activity
Bel7402/5-FU [29] = assay: Induction of apoptosis in human Bel7402/5-FU cells assessed as early apoptotic cells at 1 uM measured after 24 hrs by Annexin V-FITC/propidium iodide staining based flow cytometry (reference value: 2.8%); format: functional
Bel7402/5-FU [30] = assay: Induction of apoptosis in human Bel7402/5-FU cells assessed as late apoptotic cells at 1 uM measured after 24 hrs by Annexin V-FITC/propidium iodide staining based flow cytometry (reference value: 8.05%); format: functional
Bel7402/5-FU [31] = assay: Induction of apoptosis in human Bel7402/5-FU cells assessed as necrotic cells at 1 uM measured after 24 hrs by Annexin V-FITC/propidium iodide staining based flow cytometry (reference value: 0.137%); format: functional
Bel7402/5-FU [32] = assay: Induction of apoptosis in human Bel7402/5-FU cells assessed as viable cells at 2 uM measured after 24 hrs by Annexin V-FITC/propidium iodide staining based flow cytometry (reference value: 89%); format: functional; settings: read-out: Activity
Bel7402/5-FU [33] = assay: Induction of apoptosis in human Bel7402/5-FU cells assessed as early apoptotic cells at 2 uM measured after 24 hrs by Annexin V-FITC/propidium iodide staining based flow cytometry (reference value: 2.8%); format: functional
Bel7402/5-FU [34] = assay: Induction of apoptosis in human Bel7402/5-FU cells assessed as late apoptotic cells at 2 uM measured after 24 hrs by Annexin V-FITC/propidium iodide staining based flow cytometry (reference value: 8.05%); format: functional
Bel7402/5-FU [35] = assay: Induction of apoptosis in human Bel7402/5-FU cells assessed as necrotic cells at 2 uM measured after 24 hrs by Annexin V-FITC/propidium iodide staining based flow cytometry (reference value: 0.137%); format: functional
Bel7402/5-FU [36] = assay: Induction of apoptosis in human Bel7402/5-FU cells assessed as increase in ratio of Bax/Bcl2 level at 0.5 to 4 uM measured after 24 to 48 hrs by Western blot analysis; format: functional, cell-based

Q: Which IC50 (HCT-15 [1]) does the source give for CCCCCCCCC(SC(=O)/C=C/c1ccccc1)c1cc(OC)c2c(c1OC)/C(=N/O)C=C/C2=N\O (stereo not given) here?
A: 0.38 µM

Q: And the IC50 (MGC-803 [2])?
A: 0.79 µM

Q: What about the IC50 (K562 [3]) of the same compound?
A: 0.46 µM

Q: And the IC50 [4]?
A: > 50 µM

Q: And the selectivity ratio [5]?
A: > 132

Q: And the “Ratio IC50” value (HCT-15 [6])?
A: 2

Q: And the “Ratio IC50” value (MGC-803 [7])?
A: 2

Q: What about the “Ratio IC50” value (K562 [8]) of the same compound?
A: 2

Q: And the IC50 [9]?
A: 0.42 µM

Q: And the IC50 (Bel7402/5-FU [10])?
A: 0.29 µM

Q: What about the IC50 (MCF7) of the same compound?
A: 11.1 µM

Q: What about the IC50 (NCI/ADR-RES) of the same compound?
A: 1.33 µM

Q: And the IC50 (A549)?
A: 6.57 µM

Q: And the IC50 (A549/TR)?
A: 0.72 µM

Q: What about the “Ratio IC50” value [11] of the same compound?
A: 1.45

Q: And the “Ratio IC50” value [12]?
A: 8.37

Q: What about the “Ratio IC50” value [13] of the same compound?
A: 9.13

Q: What about the inhibition (Bel7402/5-FU [14]) of the same compound?
A: Active

Q: And the Activity (Bel7402/5-FU [15])?
A: Active

Q: What about the Activity (Bel7402/5-FU [16]) of the same compound?
A: Active

Q: What about the Activity (Bel7402/5-FU [17]) of the same compound?
A: 35.56%

Q: And the Activity (Bel7402/5-FU [18])?
A: 44.5%

Q: What about the Activity (Bel7402/5-FU [19]) of the same compound?
A: 50.69%

Q: And the Activity (Bel7402/5-FU [20])?
A: Dose-dependent effect

Q: What about the Activity (Bel7402/5-FU [21]) of the same compound?
A: Active

Q: What about the Activity (Bel7402/5-FU [22]) of the same compound?
A: Active

Q: And the Activity (Bel7402/5-FU [23])?
A: Dose-dependent effect

Q: What about the viability at 0.5 µM (Bel7402/5-FU [24]) of the same compound?
A: 64.4%

Q: And the Activity (Bel7402/5-FU [25])?
A: 22.1%

Q: What about the Activity (Bel7402/5-FU [26]) of the same compound?
A: 12.3%

Q: And the Activity (Bel7402/5-FU [27])?
A: 1.17%

Q: What about the viability at 1 µM (Bel7402/5-FU [28]) of the same compound?
A: 47.9%

Q: And the Activity (Bel7402/5-FU [29])?
A: 32.2%

Q: And the Activity (Bel7402/5-FU [30])?
A: 15.2%

Q: What about the Activity (Bel7402/5-FU [31]) of the same compound?
A: 4.64%

Q: And the viability at 2 µM (Bel7402/5-FU [32])?
A: 10.7%

Q: What about the Activity (Bel7402/5-FU [33]) of the same compound?
A: 58.3%

Q: What about the Activity (Bel7402/5-FU [34]) of the same compound?
A: 29.2%

Q: And the Activity (Bel7402/5-FU [35])?
A: 1.7%

Q: What about the Activity (Bel7402/5-FU [36]) of the same compound?
A: Active
